Values of other authors as cited in article PMC3262105 (Journal of the American Chemical Society, 2012).

Key:
[1] = tested on: SEVI- and semen-mediated enhancement of HIV infection in T cells
cervical cells [2] = conditions: concentration 10 times the IC50 for efficacy
cervical cells [3] = conditions: concentration 10 times the IC50 for efficacy; remark: listed apart in the source

Q: For `Cc1ccc2nc(-c3ccc(NCCOCCOCCOCCOCCOCCO)cc3)sc2c1` [BTA-EG6], which “concentration required to nearly completely neutralize the effects of SEVI on HIV-1 infection” value [1] is on record?
A: 44 µM

Q: And the IC50 ([1]; read-out: IC50 for reducing SEVI-enhanced infection of HIV, T cells)?
A: 13 µM

Q: What about the “toxicity to cervical cells” value (cervical cells [2]) of the same molecule?
A: not toxic

Q: What about the pro-inflammatory activity (cervical cells [3]) of the same molecule?
A: did not exhibit any pro-inflammatory activity
